Assay results: patent US10202361B2, “Pyridazinones as herbicides” (E I DU PONT DE NEMOURS AND COMPANY, priority 2014, dated 2019)

What was measured:
Assay in all cases: Test E pre-/postemergence greenhouse herbicide test
Assay type in all cases: in vivo
[1] = tested on: arrowleaf sida (Sida rhombifolia); settings: scale 0 to 100
Excerpt: (§1) Seeds of plant species selected from corn (Zea mays), soybean (Glycine max), lambsquarters (Chenopodium album), poinsettia, wild (wild poinsettia, Euphorbia heterophylla), pigweed, palmer (palmer pigweed, Amaranthus palmeri), waterhemp (common waterhemp, Amaranthus rudis), surinam grass (Brachiaria decumbens), crabgrass, large (large crabgrass Digitaria sanguinalis), crabgrass, Brazil (Brazilian crabgrass, Digitaria horizontalis), panicum, fall (fall panicum, Panicum dichotomiflorum), foxtail, giant (giant foxtail, Setaria faberii), foxtail, green (green foxtail, Setaria viridis), goosegrass (Eleusine indica), johnsongrass (Sorghum halepense), ragweed (common ragweed, Ambrosia elatior), barnyardgrass (Echinochloa crus-galli), sandbur (southern sandbur, Cenchrus echinatus), arrowleaf sida (Sida rhombifolia), ryegrass, Italian (Italian ryegrass, Lolium multiflorum), dayflower, VA (Virginia dayflower, Commelina virginica), field bindweed (Convolvulus arvensis), cocklebur (common cocklebur, Xanthium strumarium), morningglory (Ipomoea coccinea), nightshade (eastern black nightshade, Solanum ptycanthum), kochia (Kochia scoparia), nutsedge, yellow (yellow nutsedge, Cyperus esculentus), smartweed (ladysthumb smartweed, Polygonum persicaria), velvetleaf (Abutilon theophrasti), and beggarticks (hairy beggarticks, Bidens pilosa), were planted into a silt loam soil and treated preemergence with test chemicals formulated in a non-phytotoxic solvent mixture which included a surfactant.
(§2) At the same time, plants from these crop and weed species and also waterhemp_RES1, (ALS & Triazine resistant common waterhemp, Amaranthus rudis), and waterhemp_RES2, (ALS & HPPD resistant common waterhemp, Amaranthus rudis) were planted in pots containing Redi-Earth® planting medium (Scotts Company, 14111 Scottslawn Road, Marysville, Ohio 43041) comprising spaghnum peat moss, vermiculite, wetting agent and starter nutrients were treated with postemergence applications of test chemicals formulated in the same manner. Plants ranged in height from 2 to 18 cm for postemergence treatments (1- to 4-leaf stage). Treated plants and controls were maintained in a greenhouse for 14 to 21 d, after which time all species were compared to controls and visually evaluated. Plant response ratings, summarized in Table E, are based on a scale of 0 to 100 where 0 is no effect and 100 is complete control. A dash (-) response means no test result.

[2] = tested on: crabgrass, Brazil (Brazilian crabgrass, Digitaria horizontalis); settings: scale 0 to 100
Excerpt: as §1, §2

[3] = tested on: dayflower, VA (Virginia dayflower, Commelina virginica); settings: scale 0 to 100
Excerpt: as §1, §2

[4] = tested on: field bindweed (Convolvulus arvensis); settings: scale 0 to 100
Excerpt: as §1, §2

[5] = tested on: foxtail, green (green foxtail, Setaria viridis); settings: Preemergence, scale 0 to 100
Excerpt: as §1, §2

kochia (Kochia scoparia) = settings: Preemergence, scale 0 to 100
Excerpt: as §1, §2

[6] = tested on: lambsquarters (Chenopodium album); settings: Preemergence, scale 0 to 100
Excerpt: as §1, §2

[7] = tested on: morningglory (Ipomoea coccinea); settings: Preemergence, scale 0 to 100
Excerpt: as §1, §2

[8] = tested on: nightshade (eastern black nightshade, Solanum ptycanthum); settings: Preemergence, scale 0 to 100
Excerpt: as §1, §2

[9] = tested on: panicum, fall (fall panicum, Panicum dichotomiflorum); settings: scale 0 to 100
Excerpt: as §1, §2

[10] = tested on: ragweed (common ragweed, Ambrosia elatior); settings: Preemergence, scale 0 to 100
Excerpt: as §1, §2

[11] = tested on: ryegrass, Italian (Italian ryegrass, Lolium multiflorum); settings: scale 0 to 100
Excerpt: as §1, §2

[12] = tested on: sandbur (southern sandbur, Cenchrus echinatus); settings: scale 0 to 100
Excerpt: as §1, §2

soybean (Glycine max) = settings: scale 0 to 100
Excerpt: as §1, §2

[13] = tested on: velvetleaf (Abutilon theophrasti); settings: Preemergence, scale 0 to 100
Excerpt: as §1, §2

[14] = tested on: waterhemp (common waterhemp, Amaranthus rudis); settings: scale 0 to 100
Excerpt: as §1, §2

COc1cc(=O)n(-c2ccc(F)cc2)nc1Cc1ccnc(C(F)(F)F)c1 [Compound 17, 2-(4-fluorophenyl)-5-methoxy-6-[[2-(trifluoromethyl)-4-pyridinyl]methyl]-3 (2H)-pyridazinone]
95: Plant response rating: Kochia (kochia (Kochia scoparia); 62 g ai/ha) | Plant response rating: Waterhemp ([14]; Postemergence, 250 g ai/ha)
50: Plant response rating: Arrowleaf Sida ([1]; Postemergence, 62 g ai/ha) | Plant response rating: Arrowleaf Sida ([1]; Postemergence, 125 g ai/ha) | Plant response rating: Field Bindweed ([4]; Postemergence, 62 g ai/ha) | Plant response rating: Foxtail, Green ([5]; 31 g ai/ha) | Plant response rating: Panicum, Fall ([9]; Postemergence, 250 g ai/ha) | Plant response rating: Ryegrass, Italian ([11]; Preemergence, 125 g ai/ha) | Plant response rating: Soybean (soybean (Glycine max); Postemergence, 62 g ai/ha) | Plant response rating: Waterhemp ([14]; Postemergence, 31 g ai/ha)
65: Plant response rating: Morningglory ([7]; 125 g ai/ha) | Plant response rating: Soybean (soybean (Glycine max); Preemergence, 125 g ai/ha)
10: Plant response rating: Dayflower, VA ([3]; Postemergence, 16 g ai/ha) | Plant response rating: Dayflower, VA ([3]; Postemergence, 31 g ai/ha) | Plant response rating: Dayflower, VA ([3]; Preemergence, 31 g ai/ha) | Plant response rating: Ragweed ([10]; 62 g ai/ha) | Plant response rating: Sandbur ([12]; Postemergence, 16 g ai/ha)
35: Plant response rating: Morningglory ([7]; 31 g ai/ha) | Plant response rating: Ragweed ([10]; 125 g ai/ha) | Plant response rating: Sandbur ([12]; Postemergence, 125 g ai/ha)
80: Plant response rating: Dayflower, VA ([3]; Preemergence, 250 g ai/ha) | Plant response rating: Nightshade ([8]; 31 g ai/ha) | Plant response rating: Panicum, Fall ([9]; Preemergence, 16 g ai/ha) | Plant response rating: Ragweed ([10]; 250 g ai/ha) | Plant response rating: Soybean (soybean (Glycine max); Preemergence, 250 g ai/ha) | Plant response rating: Waterhemp ([14]; Postemergence, 62 g ai/ha)
70: Plant response rating: Arrowleaf Sida ([1]; Postemergence, 250 g ai/ha) | Plant response rating: Crabgrass, Brazil ([2]; Postemergence, 250 g ai/ha) | Plant response rating: Kochia (kochia (Kochia scoparia); 16 g ai/ha) | Plant response rating: Morningglory ([7]; 250 g ai/ha) | Plant response rating: Sandbur ([12]; Preemergence, 125 g ai/ha) | Plant response rating: Velvetleaf ([13]; 250 g ai/ha)
20: Plant response rating: Crabgrass, Brazil ([2]; Postemergence, 16 g ai/ha) | Plant response rating: Crabgrass, Brazil ([2]; Postemergence, 31 g ai/ha) | Plant response rating: Crabgrass, Brazil ([2]; Postemergence, 62 g ai/ha) | Plant response rating: Dayflower, VA ([3]; Preemergence, 62 g ai/ha) | Plant response rating: Panicum, Fall ([9]; Postemergence, 31 g ai/ha) | Plant response rating: Panicum, Fall ([9]; Postemergence, 62 g ai/ha) | Plant response rating: Ryegrass, Italian ([11]; Preemergence, 16 g ai/ha) | Plant response rating: Sandbur ([12]; Postemergence, 31 g ai/ha) | Plant response rating: Sandbur ([12]; Postemergence, 62 g ai/ha) | Plant response rating: Velvetleaf ([13]; 62 g ai/ha)
5: Plant response rating: Field Bindweed ([4]; Preemergence, 125 g ai/ha) | Plant response rating: Sandbur ([12]; Preemergence, 31 g ai/ha)
98: Plant response rating: Field Bindweed ([4]; Preemergence, 250 g ai/ha) | Plant response rating: Kochia (kochia (Kochia scoparia); 125 g ai/ha) | Plant response rating: Kochia (kochia (Kochia scoparia); 250 g ai/ha) | Plant response rating: Lambsquarters ([6]; 16 g ai/ha) | Plant response rating: Lambsquarters ([6]; 31 g ai/ha) | Plant response rating: Lambsquarters ([6]; 62 g ai/ha) | Plant response rating: Lambsquarters ([6]; 125 g ai/ha) | Plant response rating: Nightshade ([8]; 62 g ai/ha) | Plant response rating: Nightshade ([8]; 125 g ai/ha) | Plant response rating: Nightshade ([8]; 250 g ai/ha) | Plant response rating: Panicum, Fall ([9]; Preemergence, 62 g ai/ha) | Plant response rating: Sandbur ([12]; Preemergence, 250 g ai/ha) | Plant response rating: Waterhemp ([14]; Preemergence, 31 g ai/ha) | Plant response rating: Waterhemp ([14]; Preemergence, 62 g ai/ha) | Plant response rating: Waterhemp ([14]; Preemergence, 125 g ai/ha) | Plant response rating: Waterhemp ([14]; Preemergence, 250 g ai/ha)
100: Plant response rating: Crabgrass, Brazil ([2]; Preemergence, 16 g ai/ha) | Plant response rating: Crabgrass, Brazil ([2]; Preemergence, 31 g ai/ha) | Plant response rating: Crabgrass, Brazil ([2]; Preemergence, 62 g ai/ha) | Plant response rating: Crabgrass, Brazil ([2]; Preemergence, 125 g ai/ha) | Plant response rating: Crabgrass, Brazil ([2]; Preemergence, 250 g ai/ha) | Plant response rating: Foxtail, Green ([5]; 250 g ai/ha) | Plant response rating: Lambsquarters ([6]; 250 g ai/ha) | Plant response rating: Panicum, Fall ([9]; Preemergence, 125 g ai/ha) | Plant response rating: Panicum, Fall ([9]; Preemergence, 250 g ai/ha)
75: Plant response rating: Field Bindweed ([4]; Postemergence, 250 g ai/ha) | Plant response rating: Foxtail, Green ([5]; 62 g ai/ha) | Plant response rating: Foxtail, Green ([5]; 125 g ai/ha) | Plant response rating: Ryegrass, Italian ([11]; Preemergence, 250 g ai/ha) | Plant response rating: Sandbur ([12]; Postemergence, 250 g ai/ha) | Plant response rating: Waterhemp ([14]; Preemergence, 16 g ai/ha)
90: Plant response rating: Kochia (kochia (Kochia scoparia); 31 g ai/ha) | Plant response rating: Panicum, Fall ([9]; Preemergence, 31 g ai/ha)
40: Plant response rating: Arrowleaf Sida ([1]; Postemergence, 31 g ai/ha) | Plant response rating: Dayflower, VA ([3]; Postemergence, 250 g ai/ha) | Plant response rating: Field Bindweed ([4]; Postemergence, 16 g ai/ha) | Plant response rating: Field Bindweed ([4]; Postemergence, 31 g ai/ha) | Plant response rating: Sandbur ([12]; Preemergence, 62 g ai/ha) | Plant response rating: Waterhemp ([14]; Postemergence, 16 g ai/ha)
15: Plant response rating: Dayflower, VA ([3]; Postemergence, 62 g ai/ha) | Plant response rating: Panicum, Fall ([9]; Postemergence, 16 g ai/ha) | Plant response rating: Ryegrass, Italian ([11]; Postemergence, 250 g ai/ha)
85: Plant response rating: Soybean (soybean (Glycine max); Postemergence, 250 g ai/ha) | Plant response rating: Waterhemp ([14]; Postemergence, 125 g ai/ha)
25: Plant response rating: Ryegrass, Italian ([11]; Preemergence, 31 g ai/ha) | Plant response rating: Ryegrass, Italian ([11]; Preemergence, 62 g ai/ha) | Plant response rating: Velvetleaf ([13]; 125 g ai/ha)
30: Plant response rating: Arrowleaf Sida ([1]; Postemergence, 16 g ai/ha) | Plant response rating: Crabgrass, Brazil ([2]; Postemergence, 125 g ai/ha) | Plant response rating: Dayflower, VA ([3]; Postemergence, 125 g ai/ha) | Plant response rating: Panicum, Fall ([9]; Postemergence, 125 g ai/ha) | Plant response rating: Soybean (soybean (Glycine max); Postemergence, 16 g ai/ha) | Plant response rating: Soybean (soybean (Glycine max); Postemergence, 31 g ai/ha)
0: Plant response rating: Arrowleaf Sida ([1]; Preemergence, 16 g ai/ha) | Plant response rating: Arrowleaf Sida ([1]; Preemergence, 31 g ai/ha) | Plant response rating: Arrowleaf Sida ([1]; Preemergence, 62 g ai/ha) | Plant response rating: Arrowleaf Sida ([1]; Preemergence, 125 g ai/ha) | Plant response rating: Arrowleaf Sida ([1]; Preemergence, 250 g ai/ha) | Plant response rating: Dayflower, VA ([3]; Preemergence, 16 g ai/ha) | Plant response rating: Field Bindweed ([4]; Preemergence, 16 g ai/ha) | Plant response rating: Field Bindweed ([4]; Preemergence, 31 g ai/ha) | Plant response rating: Field Bindweed ([4]; Preemergence, 62 g ai/ha) | Plant response rating: Foxtail, Green ([5]; 16 g ai/ha) | Plant response rating: Morningglory ([7]; 16 g ai/ha) | Plant response rating: Nightshade ([8]; 16 g ai/ha) | Plant response rating: Ragweed ([10]; 16 g ai/ha) | Plant response rating: Ragweed ([10]; 31 g ai/ha) | Plant response rating: Ryegrass, Italian ([11]; Postemergence, 16 g ai/ha) | Plant response rating: Ryegrass, Italian ([11]; Postemergence, 31 g ai/ha) | Plant response rating: Ryegrass, Italian ([11]; Postemergence, 62 g ai/ha) | Plant response rating: Ryegrass, Italian ([11]; Postemergence, 125 g ai/ha) | Plant response rating: Sandbur ([12]; Preemergence, 16 g ai/ha) | Plant response rating: Soybean (soybean (Glycine max); Preemergence, 16 g ai/ha) | Plant response rating: Soybean (soybean (Glycine max); Preemergence, 31 g ai/ha) | Plant response rating: Soybean (soybean (Glycine max); Preemergence, 62 g ai/ha) | Plant response rating: Velvetleaf ([13]; 16 g ai/ha) | Plant response rating: Velvetleaf ([13]; 31 g ai/ha)
60: Plant response rating: Field Bindweed ([4]; Postemergence, 125 g ai/ha) | Plant response rating: Morningglory ([7]; 62 g ai/ha) | Plant response rating: Soybean (soybean (Glycine max); Postemergence, 125 g ai/ha)
